Measurements reported in patent publication US7741352B2, “KCNQ channel modulating compounds and their pharmaceutical use” (Neurosearch A/S, priority 2003, dated 2010).

melting point | SMILES
187 to 188 °C | Nc1ccc(Oc2ccc(C(=O)O)c(O)c2)cc1 [Compound 8-2, 4-(4-Amino-phenoxy)-2-hydroxy-benzoic acid]
191 to 197 °C | O=C(O)c1ccc(OCc2cccc(Br)c2)cc1O [Compound 1-23, 4-(3-Bromo-benzyloxy)-2-hydroxy-benzoic acid]
179 to 181 °C | COc1cc(NC(=O)c2ccc(-c3ccccc3)cc2)ccc1C(=O)O [Compound 7-1]
> 200 °C (dec.) | O=C(O)c1ccc(Oc2ccc(-c3ccccc3)cc2[N+](=O)[O-])cc1O [Compound 8-4, 2-Hydroxy-4-(3-nitro-biphenyl-4-yloxy)-benzoic acid]
143 to 145 °C | O=C(Nc1ccc(OCc2ccc(F)cc2)cc1O)C(F)(F)F [Compound 9-3, 2,2,2-trifluoro-N-[4-(4-fluoro-benzyloxy)-2-hydroxy-phenyl]-acetamide]
188 to 192 °C (dec.) | O=C(O)c1ccc(OCc2cccc(-c3ccc4c(c3)OCCCO4)c2)cc1O [Compound 3-35, 4-[3-(3,4-Dihydro-2H-benzo[b][1,4]dioxepin-7-yl)-benzyloxy]-2-hydroxy-benzoic acid]
202 to 206 °C (dec.) | O=C(O)c1ccc(OCc2ccc(-c3ccoc3)cc2)cc1O [Compound 3-4, 4-(4-Furan-3-yl-benzyloxy)-2-hydroxy-benzoic acid]
139 °C | O=C(O)c1ccc(OCCCCCCO)cc1O [Compound 1-8, 2-Hydroxy-4-(6-hydroxyhexyloxy) benzoic acid]
197 to 200 °C (dec.) | COc1ccncc1-c1ccc(COc2ccc(C(=O)O)c(O)c2)cc1 [Compound 3-5, 2-Hydroxy-4-[4-(4-methoxy-pyridin-3-yl)-benzyloxy]-benzoic acid]
209 to 212 °C (dec.) | O=C(O)c1ccc(OCc2ccc(-c3cccc(O)c3)cc2)cc1O [Compound 3-8, 2-Hydroxy-4-(3′-hydroxy-biphenyl-4-ylmethoxy)-benzoic acid]
161 to 162 °C | O=C(O)c1ccc(NCc2ccc(OC(F)F)cc2)cc1O [Compound 6-2, 4-(4-Difluoromethoxy-benzylamino)-2-hydroxy-benzoic acid]
194 to 197 °C (dec.) | O=C(O)c1ccc(OCc2cccc(-c3cc(Cl)cc(Cl)c3)c2)cc1O [Compound 3-31, 4-(3′,5′-Dichloro-biphenyl-3-ylmethoxy)-2-hydroxy-benzoic acid]
205 to 208 °C (dec.) | Nc1cccc(-c2cccc(COc3ccc(C(=O)O)c(O)c3)c2)c1 [Compound 3-24, 4-(3′-Amino-biphenyl-3-ylmethoxy)-2-hydroxy-benzoic acid]
155 to 176 °C (dec.) | Cc1noc(C)c1-c1cccc(COc2ccc(C(=O)O)c(O)c2)c1 [Compound 3-40, 4-[3-(3,5-Dimethyl-isoxazol-4-yl)-benzyloxy]-2-hydroxy-benzoic acid]
188 to 193 °C (dec.) | O=C(O)c1ccc(OCc2cccc(-c3cccc([N+](=O)[O-])c3)c2)cc1O [Compound 3-23, 2-Hydroxy-4-(3′-nitro-biphenyl-3-ylmethoxy)-benzoic acid]
211 to 227 °C (dec.) | O=C(O)c1cccc(-c2cccc(COc3ccc(C(=O)O)c(O)c3)c2)c1 [Compound 3-21, 3′-(4-Carboxy-3-hydroxy-phenoxymethyl)-biphenyl-3-carboxylic acid]
189 °C (dec.) | O=C(O)c1ccc(NCc2cccc([N+](=O)[O-])c2)cc1O [Compound 6-1, 2-Hydroxy-4-(3-nitro-benzylamino)-benzoic acid]
97 to 106 °C | CC(C)=CCC/C(C)=C/COc1ccc(C(=O)O)c(O)c1 [Compound 1-13, 4-(3,7-Dimethyl-octa-2,6-dienyloxy)-2-hydroxybenzoic acid]
252 to 257 °C (dec.) | O=C(O)c1ccc(OCc2ccc(-c3ccncc3)cc2)cc1O [Compound 3-2, 2-Hydroxy-4-(4-pyridin-4-yl-benzyloxy)-benzoic acid]
153 to 157 °C (dec.) | COc1cc(-c2cccc(COc3ccc(C(=O)O)c(O)c3)c2)ccc1O [Compound 3-26, 2-Hydroxy-4-(4′-hydroxy-3′-methoxy-biphenyl-3-ylmethoxy)-benzoic acid]
170 to 175 °C (dec.) | O=C(O)c1ccc(OCc2cccc(-c3ccc4c(c3)OCCO4)c2)cc1O [Compound 3-36, 4-[3-(2,3-Dihydro-benzo[1,4]dioxin-6-yl)-benzyloxy]-2-hydroxy-benzoic acid]
184 °C (dec.) | O=C(O)c1ccc(OCc2cccc(-c3ccccc3)c2)cc1O [Compound 3-18, 4-(Biphenyl-3-ylmethoxy)-2-hydroxy-benzoic acid]
173 to 180 °C (dec.) | CC(=O)c1cccc(-c2cccc(COc3ccc(C(=O)O)c(O)c3)c2)c1 [Compound 3-20, 4-(3′-Acetyl-biphenyl-3-ylmethoxy)-2-hydroxy-benzoic acid]
190 °C (dec.) | O=C(O)c1ccc(Nc2ccccc2[N+](=O)[O-])cc1O [Compound 8-12, 2-Hydroxy-4-(2-nitro-phenylamino)-benzoic acid]
229 °C (dec.) | O=C(O)c1ccc(OCc2ccc(-n3cncn3)cc2)cc1O [Compound 1-2, 2-Hydroxy-4-(4-[1,2,4]triazol-1-yl-benzyloxy)-benzoic acid]

melting point | SMILES
201 to 205 °C (dec.) | O=C(O)c1ccc(OCc2ccc(-c3ccco3)cc2)cc1O [Compound 3-3, 4-(4-Furan-2-yl-benzyloxy)-2-hydroxy-benzoic acid]
210 to 215 °C (dec.) | CC(=O)c1ccc(-c2cccc(COc3ccc(C(=O)O)c(O)c3)c2)s1 [Compound 3-29, 4-[3-(5-Acetyl-thiophen-2-yl)-benzyloxy]-2-hydroxy-benzoic acid]
194 °C (dec.) | O=C(O)c1ccc(OCCCN2CCCCC2)cc1O [Compound 1-21, 2-Hydroxy-4-(3-piperidin-1-yl-propoxy)-benzoic acid]
168 to 170 °C | O=C(O)c1ccc(OCCCCCCC(O)CO)cc1O (centres unmarked) [Compound 2-6, 4-(7,8-Dihydroxyoctyloxy)-2-hydroxy-benzoic acid]
231 to 233 °C (dec.) | CC(=O)Nc1cccc(-c2ccc(COc3ccc(C(=O)O)c(O)c3)cc2)c1 [Compound 3-12, 4-(3′-Acetylamino-biphenyl-4-ylmethoxy)-2-hydroxy-benzoic acid]
222 to 226 °C (dec.) | O=C(O)c1ccc(OCc2ccc(-c3ccc4c(c3)OCO4)cc2)cc1O [Compound 3-14, 4-[3′,4′-(Methylenedioxy)-biphenyl-4-ylmethoxy]-2-hydroxy-benzoic acid]
249 to 255 °C (dec.) | O=C(O)c1cccc(-c2ccc(COc3ccc(C(=O)O)c(O)c3)cc2)c1 [Compound 3-7, 4′-(4-Carboxy-3-hydroxy-phenoxymethyl)-biphenyl-3-carboxylic acid]
266 °C (dec.) | O=C(Nc1ccc(C(=O)O)c(O)c1)c1ccc(-c2ccccc2)cc1 [Compound 7-2, 4-[(Biphenyl-4-carbonyl)-amino]-2-hydroxy benzoic acid]
175 °C (dec.) | O=C(O)c1ccc(NCc2ccc(F)cc2)cc1O [Compound 6-4, 4-(4-Fluoro-benzylamino)-2-hydroxy-benzoic acid]
123 to 124 °C | CCCCCCCCOc1ccc(C(N)=O)c(O)c1 [Compound 12-4, 2-Hydroxy-4-octyloxy-benzamide]
105 °C | C=CCCCCOc1ccc(C(=O)O)c(O)c1 [Compound 1-7, 4-Hex-5-enyloxy-2-hydroxy-benzoic acid]
179 to 181 °C (dec.) | O=C(O)c1ccc(OC2CCOCC2)cc1O [Compound 4-1, 2-hydroxy-4-(tetrahydro-pyran-4-yloxy)-benzoic acid]
197 °C (dec.) | O=C(O)c1ccc(OCc2ccc3ccccc3n2)cc1O [Compound 1-19, 2-Hydroxy-4-(quinolin-2-ylmethoxy)-benzoic acid]
196 to 204 °C (dec.) | CN(C)S(=O)(=O)c1ccc(-c2cccc(COc3ccc(C(=O)O)c(O)c3)c2)cc1 [Compound 3-39, 4-(4′-Dimethylsulfamoyl-biphenyl-3-ylmethoxy)-2-hydroxy-benzoic acid]
190 to 194 °C (dec.) | O=C(O)c1ccc(OCc2cccc(-c3ccc4ccccc4c3)c2)cc1O [Compound 3-38, 2-Hydroxy-4-(3-naphthalen-2-yl-benzyloxy)-benzoic acid]
102 to 111 °C | C=CCCCCCCOc1ccc(C(=O)O)c(O)c1 [Compound 1-10, 2-Hydroxy-4-oct-7-enyloxy-benzoic acid]
> 275 °C | O=C(Oc1ccc(C(=O)O)c(O)c1)c1ccc(-c2ccccc2)cc1 [Compound 5-1, 4-(4-Phenyl-benzoyloxy)-2-hydroxy benzoic acid]
108 to 115 °C (dec.) | CCCCCCCCOc1ccc(O)c(O)c1 [Compound 10-1, 4-Octyloxy-benzene-1,2-diol]
215 to 220 °C (dec.) | CC(=O)c1cccc(-c2ccc(COc3ccc(C(=O)O)c(O)c3)cc2)c1 [Compound 3-6, 4-(3′-Acetyl-biphenyl-4-ylmethoxy)-2-hydroxy-benzoic acid]
200 to 204 °C (dec.) | COc1ccc(-c2ccc(COc3ccc(C(=O)O)c(O)c3)cc2)cc1OC [Compound 3-15, 2-Hydroxy-4-(3′,4′-dimethoxy-biphenyl-4-ylmethoxy)-benzoic acid]
176 to 178 °C (dec.) | COc1ccc(-c2cccc(COc3ccc(C(=O)O)c(O)c3)c2)c(OC)c1 [Compound 3-42, 4-(2′,4′-Dimethoxy-biphenyl-3-ylmethoxy)-2-hydroxy-benzoic acid]
195 to 197 °C | O=C(O)c1ccc(Oc2ccc([N+](=O)[O-])cc2)cc1O [Compound 8-1, 2-Hydroxy-4-(4-nitro-phenoxy)-benzoic acid]
220 °C (dec.) | N#Cc1ccccc1-c1ccc(COc2ccc(C(=O)O)c(O)c2)cc1 [Compound 1-17, 4-(2′-Cyano-biphenyl-4-ylmethoxy)-2-hydroxy-benzoic acid]
151 to 153 °C | O=C(O)c1ccc(OCC(O)CO)cc1O (centres unmarked) [Compound 2-1, 4-(2,3-Dihydroxypropoxy)-2-hydroxy-benzoic acid]
100 to 102 °C | CCCCCCCCOc1ccc(C(=O)O)c(O)c1 [Compound 1-3, 2-Hydroxy-4-octyloxy-benzoic acid]
